In patent US12304912B2, “Fused bicyclic RAF inhibitors and methods for use thereof” (Jazz Pharmaceuticals Ireland Limited, priority 2020, dated 2025):

Columns and labels:
[1] = Solubility (Sol), medium not stated; assay type: physicochemical; details: cells not marked (FESSIF)
[2] = system: BRAF monomers in A375 cells; test: A375 AlphaLISA SureFire pERK1/2 cellular assay (monomer); assay type: cell-based; details: Homo sapiens, A-375; A375 cells, 1 hr; read-out: pERK A375 (1 hr) pIC50 (converted)
Protocol: (§1) The human HCT-116 colorectal carcinoma cell line (ATCC CCL-247) endogenously expresses the KRAS^G13D mutation, which leads to constitutive activation of the MAP kinase pathway and phosphorylation of ERK. […] Assay read outs took place 2 or 24 hours after dosing with compounds. On the first day, HCT-116 cells were harvested, resuspended in growth medium (McCoys5A with Glutamax (Life Technologies 36600021) and 10% heat-inactivated fetal bovine serum (Sigma F9665)), and counted. Cells were plated in 100 μl per well in each well of a 96-well culture dish (Sigma CLS3598) to a final density of 30,000 (2 hr read) or 15,000 (24 hr read) cells per well and incubated over night at 37° C. and 5% CO2. On day 2, the growth medium was exchanged for dosing medium (McCoys5A with Glutamax (Life Technologies 36600021) and 1% heat-inactivated fetal bovine serum (Sigma F9665)) and the cells were dosed with compounds to produce a 10-point dose response, where the top concentration was 1 μM and subsequent concentrations were at 1/3 log dilution intervals. A matched DMSO control was included. The cells were subsequently incubated for either 2 or 24 hours at 37° C. and 5% CO2. After incubation, media was removed and the cells were incubated with lysis buffer containing phosphatase inhibitors for 15 minutes at room temperature. Cell lysates were transferred to a 12 area 96 well white Optiplate™ (Perkin Elmer 6005569) and incubated with anti-mouse IgG acceptor beads, a biotinylated anti-ERK1/2 rabbit antibody recognizing both phosphorylated and non-phosphorylated ERK1/2, a mouse antibody targeted to the Thr202/Tyr204 epitope and recognizing phosphorylated ERK proteins only, and streptavidin-coated donor beads. The biotinylated antibody binds to the streptavidin-coated donor beads and the phopsho-ERK1/2 antibody binds to the acceptor beads. Plates were read on an EnVision reader (Perkin Elmer) and excitation of the beads at 680 nm with a laser induced the release of singlet oxygen molecules from the donor beads that trigger energy transfer to the acceptor beads in close proximity, producing a signal that can be measured at […]. Both antibodies bound to phosphorylated ERK proteins, bringing the donor and acceptor beads into close proximity. All data were analyzed using the Dotmatics or GraphPad Prism software packages. Inhibition of ERK phosphorylation was assessed by determination of the absolute IC50 value, which is defined as the concentration of compound required to decrease the level of phosphorylated ERK proteins by 50% when compared to DMSO control.
A375 AlphaLISA SureFire pERK1/2 Cellular Assay (Monomer)
The human A375 melanoma cell line (ATCC CRL-1619) endogenously expresses the BRAF^V600E mutation, which leads to constitutive activation of the MAP kinase pathway and phosphorylation of ERK. In BRAF^V600E mutant tumours, BRAF signals as a monomer to activate ERK. To determine whether compounds can inhibit BRAF monomers in A375 cells, they were tested using AlphaLISA® SureFire® technology (Perkin Elmer p-ERK1/2 p-T202/Y204 assay kit ALSU-PERK-A10K). The main procedure is essentially the same as described above for HCT-116 cells, with the following adjustments: The A375 cells were cultivated and dosed in Dulbecco's modified Eagle's medium containing 4.5 g/L D-glucose (Sigma D6546), 10% heat-inactivated fetal bovine serum (Sigma F9665), and 1% Sodium-Pyruvate (Sigma S8636), and seeded with a seeding density of 30,000 cells per well. No media exchange was performed before dosing with compounds to produce a 10-point dose response, where the top concentration was 10 μM and subsequent concentrations were at 1/2 log dilution intervals. Subsequently, the cells were incubated for 1 hour at 37° C. and 5% CO2 before lysis.

[3] = Microsomal stability assay, mouse liver microsomes (MLM); assay type: in vitro ADME; details: 0.5 mg/mL protein, 1 μM substrate
Summary of the method: (§2)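 Half-life and CLint come from the ln(% remaining)–time slope, with remaining compound quantified by LC-MS/MS after ice-cold solvent quench of timed samples. Incubations used 1 μM test compound and 0.5 mg·mL^−1 human or mouse liver microsomal protein at 37° C.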

[4] = Plasma protein binding assay, human plasma (hPPB); assay type: in vitro ADME; details: 5 μM, equilibrium dialysis 4 hours 37° C.
Summary of the method: (§3)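 Equilibrium dialysis of 5 μM compound in previously frozen human or mouse plasma against phosphate buffer, 4 h at 37 °C. Both chambers quantified by LC-MS/MS; % free = (1−((PC−PF)/PC))×100.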

[5] = system: RAF dimers in HCT-116 cells; test: HCT-116 AlphaLISA SureFire pERK1/2 cellular assay (dimer); assay type: cell-based; details: Homo sapiens, HCT-116; HCT116 cells pre-dosed with 1 μM Encorafenib, 1 hr; read-out: pERK HCT116 dimer (1 hr) pIC50 (converted)
Protocol: as §1
HCT-116 AlphaLISA SureFire pERK1/2 Cellular Assay (Dimer)
The human HCT-116 colorectal carcinoma cell line (ATCC CCL-247) endogenously expresses the KRAS^G13D mutation, which leads to constitutive activation of the MAP kinase pathway and phosphorylation of ERK. First generation RAF inhibitors can promote RAF dimer formation in KRAS mutant tumours leading to a paradoxical activation of the pathway. To determine whether compounds can circumvent this problem and inhibit RAF dimers in HCT-116 cells, they were tested using AlphaLISA® SureFire® technology (Perkin Elmer p-ERK1/2 p-T202/Y204 assay kit ALSU-PERK-A10K). The main procedure is essentially the same as described above, with the following adjustments: Cells were seeded with the seeding density of 30,000 cells per well. On the second day (the day of dosing) no medium change was performed and the cells were dosed with 1 μM of Encorafenib for 1 hour (at 37° C. and 5% CO2) to induce RAF dimers and promote paradoxical dimer-dependent pERK signalling. After incubation, the cells were washed, 100 μl fresh growth medium was added, and cells were dosed with compounds of interest to produce a 10-point dose response, where the top concentration was 10 μM and subsequent concentrations are at 1/2 log dilution intervals. Cells were incubated for another hour at 37° C. and 5% CO2 before lysis and processing with the pERK AlphaLISA® SureFire® kit as described above. […]

[6] = Microsomal stability assay, human liver microsomes (HLM); assay type: in vitro ADME; details: 0.5 mg/mL protein, 1 μM substrate
Summary of the method: as §2

[7] = Plasma protein binding assay, mouse plasma (mPPB); assay type: in vitro ADME; details: 5 μM, equilibrium dialysis 4 hours 37° C.
Summary of the method: as §3

SMILES | Sol [1] | IC50 [2] | microsomal CLint at 1 μM [3] | hPPB (% free) [4] | IC50 [5] | microsomal CLint at 1 μM [6] | mPPB (% free) [7]
CC(C)NCc1cc(-c2c[nH]c(C3COc4ccc(Oc5ccnc6c5CCC(=O)N6)cc4C3)n2)cc(C(F)(F)F)c1 (stereo not shown) [Compound 6, 5-[3-[4-[3-[(isopropylamino)methyl]-5-(trifluoromethyl)phenyl]-1H-imidazol-2-yl]chroman-6-yl]oxy-3,4-dihydro-1H-1,8-naphthyridin-2-one] | <1.4 mg/L | 977 nM | 18.1 µL/min/mg | 2.4 % free | 447 nM | 33.4 µL/min/mg | 1.3 % free
O=C1CCc2c(Oc3ccc4c(c3)CN(C(=O)Nc3ccccc3C(F)(F)F)CC4)ccnc2N1 [Compound 49] | <1.2 mg/L | 7760 nM | 83.6 µL/min/mg | 1.9 % free | 8910 nM | 82.2 µL/min/mg | 2.5 % free
Cc1ccccc1-c1c[nH]c(C2COc3ccc(Oc4ccnc5c4CCC(=O)N5)cc3C2)n1 (stereo not shown) [Compound 2, 5-[3-[4-(o-tolyl)-1H-imidazol-2-yl]chroman-6-yl]oxy-3,4-dihydro-1H-1,8-naphthyridin-2-one] | <1.1 mg/L | 12.6 nM | 85.8 µL/min/mg | 0.3 % free | 58.9 nM | 147 µL/min/mg | 1 % free
O=C1CCc2c(Oc3ccc4c(c3)CC(c3nc(-c5ccccc5C(F)(F)F)c[nH]3)CO4)ccnc2N1 (stereo not shown) [Compound 4, 5-[3-[4-[2-(trifluoromethyl)phenyl]-1H-imidazol-2-yl]chroman-6-yl]oxy-3,4-dihydro-1H-1,8-naphthyridin-2-one] | <1.3 mg/L | 97.7 nM | 121 µL/min/mg | <0.1 % free | 269 nM | 261 µL/min/mg | 0.5 % free
O=C1CCc2c(Oc3ccc4c(c3)CC(c3nc5c(C(F)(F)F)cccc5[nH]3)CO4)ccnc2N1 (stereo not shown) [Compound 27] | <1.2 mg/L | 389 nM | 148 µL/min/mg | <0.1 % free | 380 nM | 102 µL/min/mg | <0.1 % free
COc1cncc(-c2c[nH]c(C3COc4ccc(Oc5ccnc6c5CCC(=O)N6)cc4C3)n2)c1 (stereo not shown) [Compound 17, 5-[3-[4-(5-methoxy-3-pyridyl)-1H-imidazol-2-yl]chroman-6-yl]oxy-3,4-dihydro-1H-1,8-naphthyridin-2-one] | <1.2 mg/L | 933 nM | 16.5 µL/min/mg | 0.7 % free | 347 nM | 31.5 µL/min/mg | 2.4 % free
COc1cccc(-c2c[nH]c(C3COc4ccc(Oc5ccnc6c5CCC(=O)N6)cc4C3)n2)c1 (stereo not shown) [Compound 13, 5-[3-[4-(3-methoxyphenyl)-1H-imidazol-2-yl]chroman-6-yl]oxy-3,4-dihydro-1H-1,8-naphthyridin-2-one] | <1.2 mg/L | 35.5 nM | 114 µL/min/mg | 0.7 % free | 123 nM | 77.1 µL/min/mg | 1.2 % free
O=C1CCc2c(Oc3ccc4c(c3)CC(c3nc(-c5ccc(Cl)cc5)c[nH]3)CO4)ccnc2N1 (stereo not shown) [Compound 11, 5-[3-[4-(4-chlorophenyl)-1H-imidazol-2-yl]chroman-6-yl]oxy-3,4-dihydro-1H-1,8-naphthyridin-2-one] | <1.2 mg/L | 257 nM | 29.1 µL/min/mg | 0.5 % free | 214 nM | 10.3 µL/min/mg | 0.1 % free
Cc1ccc(-c2c[nH]c(C3COc4ccc(Oc5ccnc6c5CCC(=O)N6)cc4C3)n2)cc1 (stereo not shown) [Compound 9, 5-[3-[4-(p-tolyl)-1H-imidazol-2-yl]chroman-6-yl]oxy-3,4-dihydro-1H-1,8-naphthyridin-2-one] | <1.1 mg/L | 331 nM | 6.1 µL/min/mg | 0.6 % free | 186 nM | 70.5 µL/min/mg | 0.4 % free
O=C1CCc2c(Oc3ccc4c(c3)CC(c3nc(-c5ccc(C(F)(F)F)cc5)c[nH]3)CO4)ccnc2N1 (stereo not shown) [Compound 20, 5-[3-[4-[4-(trifluoromethyl)phenyl]-1H-imidazol-2-yl]chroman-6-yl]oxy-3,4-dihydro-1H-1,8-naphthyridin-2-one] | <1.3 mg/L | 741 nM | 3 µL/min/mg | 0.1 % free | 603 nM | 16.9 µL/min/mg | 0.1 % free
CN(C)Cc1cc(C(F)(F)F)cc2nc(C3COc4ccc(Oc5ccnc6c5CCC(=O)N6)cc4C3)[nH]c12 (stereo not shown) [Compound 33] | 7 mg/L | 380 nM | 37 µL/min/mg | 2 % free | 661 nM | 77.3 µL/min/mg | 3.1 % free
COc1ccccc1-c1c[nH]c(C2COc3ccc(Oc4ccnc5c4CCC(=O)N5)cc3C2)n1 (stereo not shown) [Compound 1, 5-[3-[4-(2-methoxyphenyl)-1H-imidazol-2-yl]chroman-6-yl]oxy-3,4-dihydro-1H-1,8-naphthyridin-2-one] | <1.2 mg/L | 28.2 nM | 109 µL/min/mg | 0.2 % free | 67.6 nM | 123 µL/min/mg | 0.5 % free
N#Cc1ccc(-c2c[nH]c(C3COc4ccc(Oc5ccnc6c5CCC(=O)N6)cc4C3)n2)cc1 (stereo not shown) [Compound 21] | <1.2 mg/L | 933 nM | 23.2 µL/min/mg | 0.7 % free | 275 nM | 15.6 µL/min/mg | 1.6 % free
